Inconclusive results and toxic doses are left out. No stated cut-off is given here; in the data, active means T/C of 150% or more; inactive means T/C below 125%.
Tested on: L1210 leukemia ip in BDF1 mice, survival T/C
Assay: NCI In Vivo Anticancer Drug Screen. Data for tumor model L1210 Leukemia (intraperitoneal) in B6D2F1 (BDF1) mice
Conditions: endpoint: mean survival time, higher = longer survival
How it was run: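 Tumor was transplanted into mice, which were then dosed with test compound or vehicle alone. Survival was recorded for each group, and the treated figure was expressed relative to the control figure.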

[1] = dose: 50.0 mg/kg/injection, schedule: Q01DX009 (ip), vehicle: saline
[2] = dose: 50.0 mg/kg/injection, schedule: Q04DX003 (ip), vehicle: saline
[3] = dose: 100.0 mg/kg/injection, schedule: Q01DX009 (ip), vehicle: saline
[4] = dose: 100.0 mg/kg/injection, schedule: Q04DX003 (ip), vehicle: saline
[5] = dose: 200.0 mg/kg/injection, schedule: Q04DX003 (ip), vehicle: saline
[6] = dose: 100.0 mg/kg/injection, schedule: Q04DX003 (ip), vehicle: saline with Tween-80
[7] = dose: 200.0 mg/kg/injection, schedule: Q04DX003 (ip), vehicle: saline with Tween-80
[8] = dose: 400.0 mg/kg/injection, schedule: Q04DX003 (ip), vehicle: saline with Tween-80
[9] = dose: 100.0 mg/kg/injection, schedule: Q01DX009 (ip), vehicle: saline with Tween-80
[10] = dose: 200.0 mg/kg/injection, schedule: Q01DX009 (ip), vehicle: saline with Tween-80
[11] = dose: 400.0 mg/kg/injection, schedule: Q01DX009 (ip), vehicle: saline with Tween-80
[12] = dose: 100.0 mg/kg/injection, schedule: Q01DX001 (ip), vehicle: saline
[13] = dose: 200.0 mg/kg/injection, schedule: Q01DX001 (ip), vehicle: saline
[14] = dose: 400.0 mg/kg/injection, schedule: Q01DX001 (ip), vehicle: saline
[15] = dose: 100.0 mg/kg/injection, schedule: Q04DX003 (ip), vehicle: Klucel (hydroxypropylcellulose) (HPC)
[16] = dose: 200.0 mg/kg/injection, schedule: Q04DX003 (ip), vehicle: Klucel (hydroxypropylcellulose) (HPC)
[17] = dose: 50.0 mg/kg/injection, schedule: Q01DX001 (ip), vehicle: saline
[18] = dose: 75.0 mg/kg/injection, schedule: Q01DX001 (ip), vehicle: saline
[19] = dose: 100.0 mg/kg/injection, schedule: Q01DX001 (ip), vehicle: Klucel (hydroxypropylcellulose) (HPC)
[20] = dose: 200.0 mg/kg/injection, schedule: Q01DX001 (ip), vehicle: Klucel (hydroxypropylcellulose) (HPC)
[21] = dose: 400.0 mg/kg/injection, schedule: Q01DX001 (ip), vehicle: Klucel (hydroxypropylcellulose) (HPC)
[22] = dose: 150.0 mg/kg/injection, schedule: Q01DX001 (ip), vehicle: saline

Measured: T/C

c1ccc(OP2OCCO2)cc1
inactive: [1] 92 % of control | [2] 105 % of control | [3] 102 % of control | [4] 102 % of control | dose: 200.0 mg/kg/injection, schedule: Q01DX009 (ip), vehicle: saline 92 % of control | [5] 103 % of control

OCC(O)COCc1ccccc1 (stereo not given)
inactive: [6] 109 % of control | [7] 104 % of control | [8] 106 % of control

O=[N+]([O-])c1ccc(N=Nc2ccccc2)cc1
inactive: [9] 109 % of control | [10] 104 % of control | [11] 105 % of control

CC(CO)CCC1OC2CC3C4CCC5CC(O)CCC5(C)C4CCC3(C)C2C1C (stereo not given)
inactive: dose: 100.0 mg/kg/injection, schedule: Q04DX002 (ip), vehicle: Klucel (hydroxypropylcellulose) (HPC) 86 % of control | dose: 200.0 mg/kg/injection, schedule: Q04DX002 (ip), vehicle: Klucel (hydroxypropylcellulose) (HPC) 95 % of control | dose: 400.0 mg/kg/injection, schedule: Q04DX002 (ip), vehicle: Klucel (hydroxypropylcellulose) (HPC) 95 % of control

CC(C)C(NC(=O)C(F)(F)F)C(=O)O (stereo not given)
inactive: dose: 87.5 mg/kg/injection, schedule: Q04DX003 (ip), vehicle: saline 90 % of control | dose: 175.0 mg/kg/injection, schedule: Q04DX003 (ip), vehicle: saline 89 % of control

O=C(O)c1cc(Cl)c(Cl)cc1Cl
inactive: [1] 104 % of control | [12] 93 % of control | [3] 98 % of control | [4] 100 % of control | [13] 86 % of control | [5] 102 % of control | [14] 94 % of control

OC1CCC(O)C2CCCCC12 (stereo not given)
inactive: [12] 101 % of control | [15] 112 % of control | [13] 95 % of control | [16] 91 % of control | [14] 95 % of control | dose: 400.0 mg/kg/injection, schedule: Q04DX003 (ip), vehicle: Klucel (hydroxypropylcellulose) (HPC) 104 % of control

O=C(CCCC(=O)NNC(=S)NC1CCCCC1)NNC(=S)NC1CCCCC1
inactive: [17] 96 % of control | [12] 96 % of control | [13] 93 % of control

O=C1CCCC/C1=C\c1cccc2ccccc12
inactive: dose: 100.0 mg/kg/injection, schedule: Q04DX002 (ip), vehicle: saline with Tween-80 103 % of control | dose: 200.0 mg/kg/injection, schedule: Q04DX002 (ip), vehicle: saline with Tween-80 96 % of control | dose: 400.0 mg/kg/injection, schedule: Q04DX002 (ip), vehicle: saline with Tween-80 88 % of control

CCN(CC)CCCC(C)Nc1cc(N)nc2nc(-c3cc(OC)c(OC)c(OC)c3)cnc12 (stereo not given) (tested in a mixture with another compound)
inactive: [18] 87 % of control

CC(C)NC(N)=O
inactive: dose: 87.5 mg/kg/injection, schedule: Q01DX009 (ip), vehicle: saline 101 % of control | dose: 175.0 mg/kg/injection, schedule: Q01DX009 (ip), vehicle: saline 101 % of control | dose: 350.0 mg/kg/injection, schedule: Q01DX009 (ip), vehicle: saline 101 % of control

CN1CCCCC(c2ccccc2)(c2ccccc2)C1=N
inactive: dose: 37.5 mg/kg/injection, schedule: Q01DX001 (ip), vehicle: saline 100 % of control

CC(C)C(C)/C=C/C(C)C1CCC2C3CC=C4CC(O)CCC4(C)C3CCC12C (stereo not given)
inactive: [19] 97 % of control | [20] 101 % of control | [21] 90 % of control

C/C(=N/N(C)C)c1ccccn1
inactive: [9] 104 % of control | [6] 91 % of control | [10] 95 % of control | [7] 95 % of control | [8] 106 % of control

Cc1ccc(N2C(=O)ON(c3ccccc3)C2c2ccccc2)cc1 (stereo not given)
inactive: [17] 100 % of control | [12] 102 % of control | [13] 106 % of control | [14] 108 % of control

CC1(C)N=C(N)N=C(N)N1c1ccc(C(=O)c2ccccc2)cc1
inactive: dose: 25.0 mg/kg/injection, schedule: Q04DX003 (ip), vehicle: saline 96 % of control | [2] 89 % of control

NC(=O)CCC(NC(=O)Cc1ccccc1)C(=O)O (stereo not given)
inactive: dose: 18.75 mg/kg/injection, schedule: Q01DX001 (ip), vehicle: Klucel (hydroxypropylcellulose) (HPC) 92 % of control | dose: 37.5 mg/kg/injection, schedule: Q01DX001 (ip), vehicle: Klucel (hydroxypropylcellulose) (HPC) 100 % of control | dose: 75.0 mg/kg/injection, schedule: Q01DX001 (ip), vehicle: Klucel (hydroxypropylcellulose) (HPC) 97 % of control

Cc1ccccc1CN(C)N=O
inactive: [12] 101 % of control | [13] 94 % of control | [14] 91 % of control

c1ccc(CCCC2CCCC2)cc1
inactive: [18] 94 % of control | dose: 75.0 mg/kg/injection, schedule: Q01DX009 (ip), vehicle: saline 106 % of control | [22] 96 % of control | dose: 150.0 mg/kg/injection, schedule: Q01DX009 (ip), vehicle: saline 108 % of control | dose: 300.0 mg/kg/injection, schedule: Q01DX001 (ip), vehicle: saline 97 % of control | dose: 300.0 mg/kg/injection, schedule: Q01DX009 (ip), vehicle: saline 106 % of control

Cc1ccc(N2C=[N+](C)c3ccc(C)cc3C2)cc1
inactive: [15] 100 % of control | [16] 97 % of control

COC(=O)CCC(=O)Nc1ccc(C(=O)CBr)cc1
inactive: dose: 6.25 mg/kg/injection, schedule: Q01DX009 (ip), vehicle: Klucel (hydroxypropylcellulose) (HPC) 98 % of control | dose: 12.5 mg/kg/injection, schedule: Q01DX009 (ip), vehicle: Klucel (hydroxypropylcellulose) (HPC) 96 % of control | dose: 12.5 mg/kg/injection, schedule: Q04DX003 (ip), vehicle: Klucel (hydroxypropylcellulose) (HPC) 97 % of control | dose: 25.0 mg/kg/injection, schedule: Q01DX009 (ip), vehicle: Klucel (hydroxypropylcellulose) (HPC) 102 % of control | dose: 25.0 mg/kg/injection, schedule: Q04DX003 (ip), vehicle: Klucel (hydroxypropylcellulose) (HPC) 96 % of control | dose: 35.0 mg/kg/injection, schedule: Q01DX009 (ip), vehicle: Klucel (hydroxypropylcellulose) (HPC) 95 % of control | dose: 55.0 mg/kg/injection, schedule: Q01DX009 (ip), vehicle: Klucel (hydroxypropylcellulose) (HPC) 93 % of control

O=C(C1CC=CCC1)N1CCCCCC1 (stereo not given)
inactive: dose: 100.0 mg/kg/injection, schedule: Q04DX002 (ip), vehicle: saline 101 % of control | dose: 200.0 mg/kg/injection, schedule: Q04DX002 (ip), vehicle: saline 111 % of control | dose: 400.0 mg/kg/injection, schedule: Q04DX002 (ip), vehicle: saline 99 % of control

O=C(O)CNC(=O)CNC(=O)C1NC(C(F)(F)F)(C(F)(F)F)OC1(C(F)(F)F)C(F)(F)F (stereo not given)
inactive: [19] 97 % of control | [20] 101 % of control | [21] 92 % of control

c1cc[n+](CCNCC[n+]2ccccc2)cc1
inactive: [18] 93 % of control | [22] 94 % of control

Cc1cc(C)n(/N=C/c2cccc(Cl)c2)c(=O)c1C#N
inactive: [9] 88 % of control | [6] 95 % of control | [10] 87 % of control | [7] 90 % of control | [11] 92 % of control | [8] 90 % of control

From PubChem BioAssay AID248 (DTP/NCI, 2004)
